The subject of data set [1] is Staphylococcus aureus, Bacillus subtilis, Escherichia coli, Klebsiella aerogenes, Proteus mirabilis, Acinetobacter anitratus, Serratia marcescens and Shigella …. Description: antibacterial activity (property list). The class given is cell-based, bacteria. The following applies: substantially pure sodium salt.
Data set [2] has as its system Staphylococcus aureus (Russell). The data set can be described thus: antibacterial activity by bioautography (Table 4). The class given is cell-based. The following applies: TLC with cellulose, butanol/isopropyl alcohol/water 7:7:6 v/v. The source says:
(§1) Analysis of the preparation by thin layer chromatography on cellulose (Eastman Kodak "Chromagram" sheets) developed with n-butanol; isopropanol:water (7:7:6) separated two active substances, one with an approximate Rf of 0.54 which was designated MM 4550 A and one with an approximate Rf of 0.72 which was designated MM 13902.
(§2) 13902 AS DETERMINED BY BIOAUTOGRAPHY (TLC
(§3) WITH CELLULOSE AND BUTONAL/ISOPROPYL
(§4) ALCOHOL/WATER 7:7:6 v/v)

Data set [3] has as its system Klebsiella aerogenes. The data set can be described thus: antibacterial activity by bioautography (Table 4). The following applies: TLC with cellulose, butanol/isopropyl alcohol/water 7:7:6 v/v. The data set is classed as cell-based.
From the text: as §1, §2, §3, §4

A further data set concerns Enterobacter aerogenes. Description: antibacterial activity by bioautography (Table 4). The class given is cell-based. The following applies: TLC with cellulose, butanol/isopropyl alcohol/water 7:7:6 v/v.
From the text: as §1, §2, §3, §4

The next data set deals with Proteus morganii. Description: antibacterial activity by bioautography (Table 4). The following applies: TLC with cellulose, butanol/isopropyl alcohol/water 7:7:6 v/v. The data set is classed as cell-based.
From the text: as §1, §2, §3, §4

Data set [4] deals with Staphylococcus aureus (Oxford). The data set can be described thus: antibacterial activity by bioautography (Table 4). The data set is classed as cell-based. The following applies: TLC with cellulose, butanol/isopropyl alcohol/water 7:7:6 v/v.
From the text: as §1, §2, §3, §4

Another data set concerns Bacillus subtilis. Description: antibacterial activity by bioautography (Table 4). The class given is cell-based. The following applies: TLC with cellulose, butanol/isopropyl alcohol/water 7:7:6 v/v.
From the text: as §1, §2, §3, §4

Another data set has as its system Escherichia coli 10418. The data set can be described thus: antibacterial activity by bioautography (Table 4). The class given is cell-based. The following applies: TLC with cellulose, butanol/isopropyl alcohol/water 7:7:6 v/v.
From the text: as §1, §2, §3, §4

In another data set the test system is Salmonella typhi. The data set can be described thus: antibacterial activity by bioautography (Table 4). The data set is classed as cell-based. The following applies: TLC with cellulose, butanol/isopropyl alcohol/water 7:7:6 v/v.
From the text: as §1, §2, §3, §4

In the next data set the test system is chymotrypsin. Description: enzyme inhibition (not a general enzyme poison). The data set is classed as biochemical. The following applies: at concentrations in excess of those required to inhibit the β-lactamase of E. coli.
A further data set can be described thus: solubility. The following applies: sodium salt. The class given is physicochemical.
The test system of the next data set is carbonic anhydrase. Description: enzyme inhibition (not a general enzyme poison). The class given is biochemical. The following applies: at concentrations in excess of those required to inhibit the β-lactamase of E. coli.
The subject of data set [5] is Escherichia coli, Klebsiella aerogenes, Proteus mirabilis, Proteus morganii and Staphylococcus aureus Russell. The data set can be described thus: synergism with ampicillin (property list). The data set is classed as cell-based, bacteria. The following applies: sodium salt.
The test system of a further data set is dopa decarboxylase. Description: enzyme inhibition (not a general enzyme poison). The class given is biochemical. The following applies: at concentrations in excess of those required to inhibit the β-lactamase of E. coli.
In a further data set the test system is trypsin. Description: enzyme inhibition (not a general enzyme poison). The class given is biochemical. The following applies: at concentrations in excess of those required to inhibit the β-lactamase of E. coli.
A short description of a further data set: stability. The data set is classed as physicochemical.
The subject of a further data set is urease. Description: enzyme inhibition (not a general enzyme poison). The class given is biochemical. The following applies: at concentrations in excess of those required to inhibit the β-lactamase of E. coli.
Another data set has as its system monoamine oxidase. Description: enzyme inhibition (not a general enzyme poison). The following applies: at concentrations in excess of those required to inhibit the β-lactamase of E. coli. The data set is classed as biochemical.
Data set [6] deals with Klebsiella aerogenes. The data set can be described thus: assay of activity in units against culture filtrate. The class given is cell-based. The procedure: The MM 4550 (Complex) was eluted from the resin with 5% NaCl in 50% aqueous methanol. […] The MM 4550 (Complex) content of culture filtrate was arbitrarily set at 8 units/ml. The eluted fractions from the column were assayed using an antibacterial diffusion method against Klebsiella aerogenes and the activity units were calculated by reference to a standard line prepared by plotting zone diameter against units/ml. for various dilutions of culture filtrate (i.e. the culture filtrate was used as a standard).
The material produced above was arbitrarily assigned an activity of 340 l/ml. Assays were determined as described in Description 3.

The test system of another data set is Proteus mirabilis. Description: antibacterial activity by bioautography (Table 4). The class given is cell-based. The following applies: TLC with cellulose, butanol/isopropyl alcohol/water 7:7:6 v/v.
From the text: as §1, §2, §3, §4

Another data set has as its system Escherichia coli 311. The data set can be described thus: antibacterial activity by bioautography (Table 4). The class given is cell-based. The following applies: TLC with cellulose, butanol/isopropyl alcohol/water 7:7:6 v/v.
From the text: as §1, §2, §3, §4

Data set [7] has as its system Staphylococcus aureus, Bacillus subtilis, Escherichia coli, Klebsiella aerogenes, Proteus mirabilis, Salmonella typhi and Pseudomonas aeruginosa. Description: antibacterial activity (property list). The class given is cell-based, bacteria. The following applies: sodium salt.
The next data set has as its system Prov. stuartii. Description: MIC, microtitre method (Table 10). The data set is classed as cell-based. The following applies: heavy inoculum, 1/100 overnight broth. The procedure: (§5) Partially purified MM 4550Adi-sodium salt (0.55 g) was chromatographed on a cellulose column (4.5 cm×29 cm; Whatman CC31 cellulose) eluted with n-propanol/water (4:1 v/v) at a flow rate of 2.5 ml./min. The first 135 ml of eluate was discarded and then 15 ml fractions collected.
(§6) ANTIBACTERIAL ACTIVITY OF THE DI-SODIUM
(§7) SALT OF MM 4550A ([…]-HEAVY
(§8) INOCULUM, 1/100 OVERNIGHT BROTH

The subject of another data set is Kleb. aerogenes A. The data set can be described thus: MIC, microtitre method (Table 10). The data set is classed as cell-based. The following applies: heavy inoculum, 1/100 overnight broth. The procedure:
as §5, §6, §7, §8

The test system of another data set is Staph. aureus Russell. The data set can be described thus: MIC, microtitre method (Table 10). The data set is classed as cell-based. The following applies: heavy inoculum, 1/100 overnight broth. The procedure: as §5, §6, §7, §8
The next data set has as its system Shigella sonnei. The data set can be described thus: MIC, microtitre method (Table 10). The data set is classed as cell-based. The following applies: heavy inoculum, 1/100 overnight broth. The procedure:
as §5, §6, §7, §8

Another data set deals with Staph. aureus Oxford. The data set can be described thus: MIC, microtitre method (Table 10). The class given is cell-based. The following applies: heavy inoculum, 1/100 overnight broth. The procedure:
as §5, §6, §7, §8

The subject of the next data set is Strep. faecalis. Description: MIC, microtitre method (Table 10). The class given is cell-based. The following applies: heavy inoculum, 1/100 overnight broth. The procedure: as §5, §6, §7, §8
The test system of data set [8] is Serratia marcescens US 39. Description: MIC, microtitre method (Table 10). The class given is cell-based. The following applies: heavy inoculum, 1/100 overnight broth. The procedure:
as §5, §6, §7, §8

Another data set relates to Proteus vulgaris WO 90. The data set can be described thus: MIC, microtitre method (Table 10). The data set is classed as cell-based. The following applies: heavy inoculum, 1/100 overnight broth. The procedure: as §5, §6, §7, §8
In a further data set the test system is Enterobacter cloacae N1. Description: MIC, microtitre method (Table 10). The class given is cell-based. The following applies: heavy inoculum, 1/100 overnight broth. The procedure: as §5, §6, §7, §8
A further data set has as its system Bacillus subtilis A. Description: MIC, microtitre method (Table 10). The data set is classed as cell-based. The following applies: heavy inoculum, 1/100 overnight broth. The procedure:
as §5, §6, §7, §8

Data set [9] relates to Salmonella typhimurium CT 10. The data set can be described thus: MIC, microtitre method (Table 10). The data set is classed as cell-based. The following applies: heavy inoculum, 1/100 overnight broth. The procedure:
as §5, §6, §7, §8

In another data set the test system is Ps. aeruginosa A. Description: MIC, microtitre method (Table 10). The following applies: heavy inoculum, 1/100 overnight broth. The class given is cell-based. The procedure: as §5, §6, §7, §8
The subject of another data set is Proteus mirabilis 13. Description: MIC, microtitre method (Table 10). The data set is classed as cell-based. The following applies: heavy inoculum, 1/100 overnight broth. The procedure:
as §5, §6, §7, §8

Where a name gives a salt, the structure may show the parent alone.

For the compound `CC(=O)N/C=C/[S+]([O-])C1=C(C(=O)O)N2C(=O)C(C(C)OS(=O)(=O)O)C2C1` (stereo not drawn) [MM 4550A], the antibacterial activity result in data set [1] was “possesses antibacterial activity”. Further, the “Zone Diameter on Bioautography” value in [2] turned out to be 12.0 mm; in the data set on Klebsiella aerogenes [3] it was 20.0 mm; in the data set on Enterobacter aerogenes, 6.5 mm; in the data set with Proteus morganii, 16.0 mm; in data set [4] it was 13.0 mm; in the data set on Bacillus subtilis it was 24.0 mm. Moreover, the “Zone Diameter on Bioautography” value with Escherichia coli 10418 is on record as 20.0 mm; with Salmonella typhi, 19.5 mm. The inhibition of chymotrypsin entry in the data set with chymotrypsin is on record as “does not inhibit”. Further, the “solubility in chloroform, diethylether and hydrocarbons” value in “solubility” was “substantially insoluble”. For the same compound, in “solubility”, the solubility in methanol entry is on record as “soluble”. In “solubility”, the solubility in water entry is “highly soluble”. The “inhibition of carbonic anhydrase” value in the data set on carbonic anhydrase is “does not inhibit”. In addition, the “synergism when mixed with ampicillin” value in [5] is listed as “synergizes its activity”. For the same compound, the “inhibition of dopa decarboxylase” value with dopa decarboxylase is “does not inhibit”. Further, in the data set on trypsin, the inhibition of trypsin entry is “does not inhibit”. The “stability for isolation from mixtures” value in the data set “stability” (monobasic salts and free acid) was “not sufficiently stable to isolate from mixtures”. Moreover, in “stability” (unsalted acid form), the stability entry is “tends to be unstable”. In the data set on urease, the inhibition of urease result was “does not inhibit”. The “inhibition of monoamine oxidase” value with monoamine oxidase is on record as “does not inhibit”. In addition, in the data set with Klebsiella aerogenes [6] (Example 3, partially purified salt (2.18 g brown solid)), the activity is on record as 3,100 units/mg.

Consider `CC(=O)N/C=C/SC1=C(C(=O)O)N2C(=O)C(C(C)OS(=O)(=O)O)C2C1` (stereo not drawn) [MM 13902], for which the “Zone Diameter on Bioautography” value in data set [2] is on record as 4.0 mm; in the data set with Klebsiella aerogenes [3], 20.0 mm; in the data set with Proteus mirabilis, 13.5 mm; in the data set with Enterobacter aerogenes, “No Zone”; in the data set on Escherichia coli 311 it was 10.5 mm; with Proteus morganii it was 9.5 mm. Besides, the “Zone Diameter on Bioautography” value in [4] is 4.0 mm; with Bacillus subtilis, 15.0 mm; in the data set with Escherichia coli 10418 it was 13.5 mm; in the data set with Salmonella typhi it was 21.0 mm. In [7], the antibacterial activity entry is listed as “possesses antibacterial activity”. In data set [5], the “synergism when mixed with ampicillin” value is “synergyses its activity”.

As to `CC(=O)N/C=C/[S+]([O-])C1=C(C(=O)O)N2C(=O)C(C(C)OS(=O)(=O)O)C2C1` (stereo not drawn) [di-sodium salt of MM 4550A], the MIC (commonly the smallest concentration in the dilution series that meets the test's criterion for growth inhibition) against Prov. stuartii stood at 5 µg/mL; against Kleb. aerogenes A, 2.5 µg/mL; with Staph. aureus Russell, 20 µg/mL; in the data set on Shigella sonnei, 5 µg/mL; in the data set with Staph. aureus Oxford, 20 µg/mL; in the data set on Strep. faecalis, 100 µg/mL. The minimal inhibitory concentration (MIC) in data set [8] was 20 µg/mL; with Proteus vulgaris WO 90, 5 µg/mL; against Enterobacter cloacae N1, 100 µg/mL; against Bacillus subtilis A it was 25 µg/mL; in [9], 5 µg/mL; in the data set with Ps. aeruginosa A, greater than 100 µg/mL. The same compound displayed an MIC in the data set with Proteus mirabilis 13 of 10 µg/mL. Also, the activity in the data set on Klebsiella aerogenes [6] (Example 3, yellowish powder (87 mg) after cellulose column) is 6,600 units/mg.
